Results: patent publication US20260356851A1, “TRICYCLIC COMPOUNDS AND USES THEREOF” (HUTCHMED LIMITED, priority 2023, published 2026)
Like-named read-outs stand apart in the source and are kept apart here.

How the values were obtained:
Type in all cases: cell-based
[1] = target: T1, pERK1/2 (Thr202/Tyr204), NCI-1H358 (KRAS G12C) (Homo sapiens, UniProt P01116, G12C); assay: Assay of intracellular pERK1/2 (Thr202/Tyr204) phosphorylation in NCI-H358 cells (KRAS G12C)
T1 construct: pERK1/2 HTRF read-out
T1 sequence (P01116 1-188 isoform P01116-2 G12C): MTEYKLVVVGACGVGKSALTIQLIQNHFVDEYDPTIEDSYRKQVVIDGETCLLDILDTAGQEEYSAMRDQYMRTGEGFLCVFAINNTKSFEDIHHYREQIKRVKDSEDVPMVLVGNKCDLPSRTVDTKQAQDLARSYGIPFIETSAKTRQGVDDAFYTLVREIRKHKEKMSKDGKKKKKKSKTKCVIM
Method in brief: (§1)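 Cells (10000-12000/well) exposed to 3-fold compound dilutions for 2 days at 37 °C, then lysed; pERK1/2 (Thr202/Tyr204) measured by HTRF with d2 and cryptate antibodies, 665/615 nm ratio.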

[2] = target: T2, pERK1/2 (Thr202/Tyr204), PANC-1 (KRAS G121D) (Homo sapiens, UniProt P01116, G12D); assay: Assay of intracellular pERK1/2 (Thr202/Tyr204) phosphorylation in PANC-1 cells (KRAS G12D)
T2 construct: pERK1/2 HTRF read-out
T2 sequence (P01116 1-188 isoform P01116-2 G12D): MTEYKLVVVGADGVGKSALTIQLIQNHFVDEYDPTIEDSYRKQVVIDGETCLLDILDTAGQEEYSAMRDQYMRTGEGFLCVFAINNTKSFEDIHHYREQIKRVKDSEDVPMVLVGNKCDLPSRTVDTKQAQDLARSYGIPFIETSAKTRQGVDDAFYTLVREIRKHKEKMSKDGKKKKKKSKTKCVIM
Method in brief: as §1

[3] = target: T3, pERK1/2 (Thr202/Tyr204), NCI-1H441 (KRAS G12V) (Homo sapiens, UniProt P01116, G12V); assay: Assay of intracellular pERK1/2 (Thr202/Tyr204) phosphorylation in NCI-H441 cells (KRAS G12V)
T3 construct: pERK1/2 HTRF read-out
T3 sequence (P01116 1-188 isoform P01116-2 G12V): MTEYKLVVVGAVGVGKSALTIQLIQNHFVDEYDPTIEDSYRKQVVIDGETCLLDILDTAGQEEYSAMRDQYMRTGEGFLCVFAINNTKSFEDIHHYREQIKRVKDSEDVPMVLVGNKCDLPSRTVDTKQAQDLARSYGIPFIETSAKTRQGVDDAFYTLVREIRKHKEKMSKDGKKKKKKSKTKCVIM
Method in brief: as §1

[4] = pERK1/2, 2 days, read-out: NCI-H358 (KRAS G12C) IC50
[5] = pERK1/2, 2 days, read-out: PANC-1 (KRAS G12D) IC50
[6] = pERK1/2, 2 days, read-out: NCI-H441 (KRAS G12V) IC50

Compound	IC50 [1, 4]	IC50 [2, 5]	IC50 [3, 6]	IC50 ([1]; read-out: NCI-H358 (KRAS G12C) IC50, pERK1/2, 2 days)	IC50 ([2]; read-out: PANC-1 (KRAS G12D) IC50, pERK1/2, 2 days)	IC50 ([3]; read-out: NCI-H441 (KRAS G12V) IC50, pERK1/2, 2 days)
[2H]C1([2H])Oc2nc(-c3cc(N)c(F)c(Cl)c3C(F)(F)F)c(F)c3nc(OC[C@@]45CCCN4C[C@H](F)C5)nc(c23)N(C(C)c2cccnc2N)C1([2H])[2H] (single isomer, unassigned) [Compound 206, 3-((R or S)-1-(5-(5-amino-3-chloro-4-fluoro-2-(trifluoromethyl)phenyl)-4-fluoro-2-(((2R,7aS)-2-fluorotetrahydro-1H-pyrrolizin-7a(5H)-yl)methoxy)-8,9-dihydro-10H-7-oxa-1,3,6,10-tetraazacyclohepta[de]naphthalen-10-yl-8,8,9,9-d4)ethyl)pyridin-2-amine]	0.2 nM	0.8 nM	0.3 nM			
CC(c1cccn2ccnc12)N1c2nc(OC[C@@]34CCCN3C[C@H](F)C4)nc3c(F)c(-c4cc(O)cc5ccc(F)c(F)c45)nc(c23)OC[C@@H]1C (stereo partly drawn) [Compound 310, (*)5,6-Difluoro-4-((9S)-4-fluoro-2-(((2R,7aS)-2-fluorotetrahydro-1H-pyrrolizin-7a(5H)-yl)methoxy)-10-(1-(imidazo[1,2-a]pyridin-8-yl)ethyl)-9-methyl-9,10-dihydro-8H-7-oxa-1,3,6,10-tetraazacyclohepta[de]naphthalen-5-yl)naphthalen-2-ol]				> 100 nM	> 100 nM	> 100 nM
CC(c1cccnc1N)N1c2nc(OC[C@@]34CCCN3C[C@H](F)C4)nc3c(F)c(-c4c5c(cc6[nH]ncc46)CC=C5F)nc(c23)OC[C@@H]1C (stereo partly drawn) [Compound 374]	0.6 nM	1 nM	2 nM			
C#Cc1c(Cl)cc(N)cc1-c1nc2c3c(nc(OC[C@@H]4CCCN4C)nc3c1F)N(C(C)c1cccnc1N)CCO2 (stereo partly drawn) [Compound 94]	46 nM	> 100 nM	100 nM			
Cc1cc2[nH]ncc2c(-c2nc3c4c(nc(OC[C@@]56CCCN5C[C@H](F)C6)nc4c2F)N(C(C)c2cccnc2N)[C@@H](C)CO3)c1C(F)(F)F (stereo partly drawn) [Compound 312]	0.3 nM	0.3 nM	0.4 nM			
Cc1cc(N)cc(-c2nc3c4c(nc(OC[C@@H]5CC(F)(F)CN5C)nc4c2F)N(C(C)c2cccnc2N)CCO3)c1C(F)(F)F (stereo partly drawn) [Compound 70]	2 nM	> 100 nM	2 nM			
[2H]C1([2H])CC[C@@]2(C([2H])([2H])Oc3nc4c5c(nc(-c6cc(N)c(F)c(C)c6C(F)(F)F)c(F)c5n3)OCCN4C(C)c3cccnc3N)C[C@]([2H])(F)CN12 (single isomer, unassigned; diastereomer 2) [Compound 179, (*)3-(1-(5-(5-amino-4-fluoro-3-methyl-2-(trifluoromethyl)phenyl)-4-fluoro-2-(((2R or 2S,7aS)-2-fluorotetrahydro-1H-pyrrolizin-7a(5H)-yl-2,5,5-d3)methoxy-d2)-8,9-dihydro-10H-7-oxa-1,3,6,10-tetraazacyclohepta[de]naphthalen-10-yl)ethyl)pyridin-2-amine (diastereomer 2)]	1 nM	20 nM	3 nM			
Cc1cc(N)cc(-c2nc3c4c(nc(OC[C@@]56CCCN5C[C@H](F)C6)nc4c2F)N(C(C)c2cccnc2N)C2(CC2)CO3)c1C(F)(F)F (stereo partly drawn) [Compound 181]	> 100 nM	> 100 nM	> 100 nM			
CC(c1cccnc1N)N1c2nc(OC[C@@H]3C[C@@H](F)CN3C)nc3c(F)c(-c4cc(N)c(F)c(Cl)c4C(F)(F)F)nc(c23)OC[C@@H]1C (stereo partly drawn) [Compound 289]	0.3 nM	4 nM	1 nM			
Cc1cc2[nH]ncc2c(-c2nc3c4c(nc(OC[C@@]56CCCN5C[C@H](F)C6)nc4c2F)N(C(C)c2cccnc2N)CCO3)c1C (stereo partly drawn) [Compound 2, 3-(1-(5-(5,6-Dimethyl-1H-indazol-4-yl)-4-fluoro-2-(((2R,7aS)-2-fluorotetrahydro-1H-pyrrolizin-7a(5H)-yl)methoxy)-8,9-dihydro-1OH-7-oxa-1,3,6,10-tetraazacyclohepta[de]naphthalen-10-yl)ethyl)pyridin-2-amine]	9 nM	321 nM	42 nM			
Cc1c(F)c(N)cc(-c2nc3c4c(nc(OC[C@@]56CCCN5C[C@H](F)C6)nc4c2F)N(Cc2cccnc2N)CCO3)c1C(F)(F)F [Compound 180]	1 nM	35 nM	6 nM			
Cc1c(F)c(N)cc(-c2nc3c4c(nc(OC[C@@]56CCCN5CC(F)(F)C6)nc4c2F)N(C(C)c2cccnc2N)CCO3)c1C(F)(F)F (stereo partly drawn) [Compound 171]	0.5 nM	27 nM	2 nM			
[2H]C1([2H])Oc2nc(-c3cc(N)c(F)c(Cl)c3C(F)(F)F)c(F)c3nc(OC[C@@H]4C[C@@H](F)CN4C)nc(c23)N(C(C)c2cccnc2N)C1([2H])[2H] (single isomer, unassigned) [Compound 208, 3-((R or S)-1-(5-(5-amino-3-chloro-4-fluoro-2-(trifluoromethyl)phenyl)-4-fluoro-2-(((2S,4R)-4-fluoro-1-methylpyrrolidin-2-yl)methoxy)-8,9-dihydro-10H-7-oxa-1,3,6,10-tetraazacyclohepta[de]naphthalen-10-yl-8,8,9,9-d4)ethyl)pyridin-2-amine]	0.4 nM	10 nM	1 nM			
Cc1cc(N)cc(-c2nc3c4c(nc(OC[C@@H]5CCCN5C5COC5)nc4c2F)N(C(C)c2cccnc2N)CCO3)c1C(F)(F)F (single isomer, unassigned) [Compound 161, 3-((R or S)-1-(5-(5-amino-3-methyl-2-(trifluoromethyl)phenyl)-4-fluoro-2-(((S)-1-(oxetan-3-yl)pyrrolidin-2-yl)methoxy)-8,9-dihydro-10H-7-oxa-1,3,6,10-tetraazacyclohepta[de]naphthalen-10-yl)ethyl)pyridin-2-amine]	14 nM	> 100 nM	48 nM			
CC(c1cccnc1N)N1c2nc(OC[C@@]34CCCN3C[C@H](F)C4)nc3c(F)c(-c4c5ccccc5cc5[nH]ncc45)nc(c23)O[C@H]2CCC[C@@H]21 (stereo partly drawn) [Compound 398]	212 nM	264 nM	472 nM			
CC(c1cccnc1N)N1c2nc(OC[C@@]34CCCN3C[C@H](F)C4)nc3c(F)c(-c4c5c(cc6[nH]ncc46)CCC5)nc(c23)OC[C@@H]1C (stereo partly drawn) [Compound 343]	0.2 nM	2 nM	0.6 nM			
CC(c1cccnc1N)N1CCOc2nc(-c3cc(N)ccc3C(F)(F)F)c(F)c3nc(OC[C@@H]4CC(F)(F)CN4C)nc1c23 (stereo partly drawn) [Compound 37]	11 nM	851 nM	26 nM			
C[C@H](c1cccnc1N)N1c2nc(OC[C@@H]3C[C@@H](F)CN3C)nc3c(F)c(-c4cc(N)cc(Cl)c4C(F)(F)F)nc(c23)OC[C@@H]1C (single isomer, unassigned) [Compound 286, 3-((R or S)-1-((S)-5-(5-amino-3-chloro-2-(trifluoromethyl)phenyl)-4-fluoro-2-(((2S,4R)-4-fluoro-1-methylpyrrolidin-2-yl)methoxy)-9-methyl-8,9-dihydro-1H-7-oxa-1,3,6,10-tetraazacyclohepta[de]naphthalen-10-yl)ethyl)pyridin-2-amine]	57 nM	> 100 nM	> 100 nM			
CC(c1cccnc1N)N1c2nc(OC[C@@]34CCCN3C[C@H](F)C4)nc3c(F)c(-c4cc(N)cc(Cl)c4)nc(c23)OC[C@@H]1C (stereo partly drawn) [Compound 306]	16 nM	93 nM	40 nM			
COc1ccc(C(F)(F)F)cc1-c1nc2c3c(nc(OC[C@@]45CCCN4C[C@H](F)C5)nc3c1F)N(C(C)c1cccnc1N)CCO2 (stereo partly drawn) [Compound 47]	> 1000 nM	347 nM	> 1000 nM			
CC(c1cccnc1N)N1c2nc(OC[C@@]34CCCN3C[C@H](F)C4)nc3c(F)c(-c4cc(O)cc5ccc(F)c(F)c45)nc(c23)OC[C@@H]1C (single isomer, unassigned) [Compound 275, 4-((S)-10-((R or S)-1-(2-aminopyridin-3-yl)ethyl)-4-fluoro-2-(((2R,7aS)-2-fluorotetrahydro-1H-pyrrolizin-7a(5H)-yl)methoxy)-9-methyl-9,10-dihydro-8H-7-oxa-1,3,6,10-tetraazacyclohepta[de]naphthalen-5-yl)-5,6-difluoronaphthalen-2-ol]	0.4 nM	0.4 nM	0.8 nM			
CC(c1cccnc1N)N1CCOc2nc(-c3cc(O)cc4ccc(F)c(F)c34)c(F)c3nc(OC[C@@H]4CC(F)(F)CN4C)nc1c23 (single isomer, unassigned) [Compound 51, 4-(10-((R or S)-1-(2-aminopyridin-3-yl)ethyl)-2-(((S)-4,4-difluoro-1-methylpyrrolidin-2-yl)methoxy)-4-fluoro-9,10-dihydro-8H-7-oxa-1,3,6,10-tetraazacyclohepta[de]naphthalen-5-yl)-5,6-difluoronaphthalen-2-ol]	2 nM	100 nM	5 nM			
Cc1cc(N)cc(-c2nc3c4c(nc(OC[C@@H]5C[C@@H](F)CN5C)nc4c2F)N(C(C)c2cccnc2N)CCO3)c1C(F)(F)F (single isomer, unassigned) [Compound 81, 3-((R or S)-1-(5-(5-amino-3-methyl-2-(trifluoromethyl)phenyl)-4-fluoro-2-(((2S,4R)-4-fluoro-1-methylpyrrolidin-2-yl)methoxy)-8,9-dihydro-10H-7-oxa-1,3,6,10-tetraazacyclohepta[de]naphthalen-10-yl)ethyl)pyridin-2-amine]	> 100 nM	> 100 nM	> 100 nM			
